Structures can show the parent of a compound that is named as a salt.

In the assay the target is S1P1 receptor (Homo sapiens, UniProt P21453). Briefly: 35S-GTPγS binding, membranes from CHO cells expressing S1P1. In kind it is biochemical. The conditions noted are these: CHO cell membranes expressing S1P1. As to the method: Receptor binding assay: Membranes were prepared from CHO cells expressing S1P1 or S1P3 for use in ligand and 35S-GTPTS binding studies. Cells were suspended in 50 mM TRIS, pH 7.4, 2 mM EDTA, 250 mM Sucrose (buffer A) and 1× Complete protease inhibitor cocktail (Roche), and disrupted at 4° C. by nitrogen decompression using a cell disruption bomb (Parr Instrument). Following centrifugation at 1000 RPM for 10 min at 4° C., the supernatant was suspended in buffer A and centrifuged again at 19000 RPM for 60 min at 4° C. The pellet was then suspended in 10 mM HEPES, pH 7.4, 1 mM EDTA, 250 mM Sucrose (Buffer B), and 1× Complete EDTA-free protease inhibitor cocktail and homogenized using a potter. Membranes were flash frozen in liquid nitrogen and stored at −80° C. [33P]sphingosine 1-phosphate (3000 Ci/mmol; American Radiolabeled Chemicals, Inc.) was added to test compounds in DMSO. Membranes and WGA SPA beads (GE Healthcare) were added to give a final volume of 100 μl in 96-well plates with assay concentrations of […] [33P]sphingosine 1-phosphate (respectively for S1P1 or S1P3), 50 mM HEPES, pH 7.5, 5 mM MgCl2, 100 mM NaCl, 0.4% fatty acid-free BSA, 1-5 μg/well of proteins and 100 μg/well of WGA SPA beads. Binding was performed for 60 min at room temperature on a shaker and bound radioactivity was measured on a PerkinElmer 1450 MicroBeta counter. Specific binding was calculated by subtracting remaining radioactivity in the presence of 1000-fold excess of unlabeled S1P. Binding data were analyzed using the GraphPad Prism program.
Chain of S1P1 receptor (P21453 whole entry): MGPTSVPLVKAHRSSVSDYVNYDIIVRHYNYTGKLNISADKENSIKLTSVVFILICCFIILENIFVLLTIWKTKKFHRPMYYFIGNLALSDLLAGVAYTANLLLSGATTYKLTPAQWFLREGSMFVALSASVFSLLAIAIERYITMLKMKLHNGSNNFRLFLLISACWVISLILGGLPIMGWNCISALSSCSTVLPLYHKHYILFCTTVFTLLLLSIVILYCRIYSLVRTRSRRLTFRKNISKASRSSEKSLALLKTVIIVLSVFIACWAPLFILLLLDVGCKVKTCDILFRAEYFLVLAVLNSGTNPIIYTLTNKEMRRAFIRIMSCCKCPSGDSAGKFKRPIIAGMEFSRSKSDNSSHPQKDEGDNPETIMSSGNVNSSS
Measurements of ^35S-GTPγS Binding: Membranes (1 to 10 μg protein) prepared as described above, were incubated in 96-well Scintiplates (PerkinElmer) with test compounds diluted in DMSO, in 180 μl of 20 mM HEPES, pH 7.4, 10 mM MgCl2, 2 μg/well Saponin, 0.2% fatty acid free BSA (Assay buffer), 140 mM NaCl and 1.7 μM GDP. The assay was initiated with the addition of 20 μl of 1.5 nM [35S]-GTPγS (1100 Ci/mmol; GE Healthcare) in assay buffer. After 60 min incubation at 30° C. on a shaker, plates were centrifuged for 10 min at 2000 RPM. Supernatant was discarded and membrane bound radioactivity was measured on a PerkinElmer 1450 MicroBeta counter. Triplicate samples were averaged and expressed as response relative to S1P activation in absence of compound (n=2).
A general note: Binding of GTPγS marks nucleotide exchange on a G protein.
`Nc1ccc(-c2noc(-c3nnn(-c4ccccc4F)c3-c3ccncc3)n2)cn1` [Example 118, 5-{5-[1-(2-fluorophenyl)-5-pyridin-4-yl-1H-1,2,3-triazol-4-yl]-1,2,4-oxadiazol-3-yl}pyridin-2-amine] showed an EC50 of 131 nM.

As to `Fc1ccccc1-n1nnc(-c2nc(-c3cnccn3)no2)c1-c1ccncc1` [Example 119, 2-{5-[1-(2-fluorophenyl)-5-pyridin-4-yl-1H-1,2,3-triazol-4-yl]-1,2,4-oxadiazol-3-yl}pyrazine], the EC50 worked out at 1260 nM.

`Fc1ccccc1-n1nnc(-c2nc(-c3ccc(C(F)(F)F)nc3)no2)c1-c1ccncc1` [Example 120, 5-{5-[1-(2-fluorophenyl)-5-pyridin-4-yl-1H-1,2,3-triazol-4-yl]-1,2,4-oxadiazol-3-yl}-2-(trifluoromethyl)pyridine] came in with an EC50 of 754 nM.

As for `COc1ccc(F)cc1-c1noc(-c2nnn(-c3ccccc3F)c2-c2ccncc2)n1` [Example 122, 4-[4-[3-(5-fluoro-2-methoxyphenyl)-1,2,4-oxadiazol-5-yl]-1-(2-fluorophenyl)-1H-1,2,3-triazol-5-yl]pyridine], the midpoint of the response, the EC50, lay at 56 nM.

For the molecule `COCc1c(-c2nc(-c3ccc(N)nc3)no2)nnn1-c1ccccc1F` [Example 123, 5-{5-[1-(2-fluorophenyl)-5-(methoxymethyl)-1H-1,2,3-triazol-4-yl]-1,2,4-oxadiazol-3-yl}pyridin-2-amine], the EC50 is 475 nM.

As to `Oc1cccc(-c2noc(-c3nnn(-c4ccccc4F)c3-c3ccncc3)n2)c1` [Example 124, 3-{5-[1-(2-fluorophenyl)-5-pyridin-4-yl-1H-1,2,3-triazol-4-yl]-1,2,4-oxadiazol-3-yl}phenol], the EC50 turned out to be 23 nM.

`NCc1cccc(-c2noc(-c3nnn(-c4ccccc4F)c3-c3ccncc3)n2)c1` [Example 125, 1-(3-{5-[1-(2-fluorophenyl)-5-pyridin-4-yl-1H-1,2,3-triazol-4-yl]-1,2,4-oxadiazol-3-yl}phenyl)methanamine hydrochloride] showed a concentration for a half-maximal effect (EC50) of 230 nM.

The molecule `COc1ccc(-c2noc(-c3nnn(-c4ccccc4F)c3-c3ccncc3)n2)cn1` [Example 126, 5-{5-[1-(2-fluorophenyl)-5-pyridin-4-yl-1H-1,2,3-triazol-4-yl]-1,2,4-oxadiazol-3-yl}-2-methoxypyridine] came in with an EC50 of 226 nM.

`CN(CC(=O)O)Cc1ccc(-c2noc(-c3nnn(-c4ccccc4F)c3-c3ccncc3)n2)cc1` [Example 130, N-(4-{5-[1-(2-fluorophenyl)-5-pyridin-4-yl-1H-1,2,3-triazol-4-yl]-1,2,4-oxadiazol-3-yl}benzyl)-N-methylglycine] yielded an EC50 of 45 nM.

`CN(C)Cc1ccc(-c2noc(-c3nnn(-c4ccccc4F)c3-c3ccncc3)n2)cc1` [Example 131, 1-(4-{5-[1-(2-fluorophenyl)-5-pyridin-4-yl-1H-1,2,3-triazol-4-yl]-1,2,4-oxadiazol-3-yl}phenyl)-N,N-dimethylmethanamine]: the EC50 was 11 nM. Compared with the last molecule, the EC50 is about 4.1-fold lower.

Molecule `OCCNCc1cccc(-c2noc(-c3nnn(-c4ccccc4F)c3-c3ccncc3)n2)c1` [Example 132, 2-[(3-{5-[1(2-fluorophenyl)-5-pyridin-4-yl-1H-1,2,3-triazol-4-yl]-1,2,4-oxadiazol-3-yl}benzyl)amino]ethanol formate] had an EC50 of 383 nM.

Molecule `CNCc1cccc(-c2noc(-c3nnn(-c4ccccc4F)c3-c3ccncc3)n2)c1` [Example 133, 1-(3-{5-[1-(2-fluorophenyl)-5-pyridin-4-yl-1H-1,2,3-triazol-4-yl]-1,2,4-oxadiazol-3-yl}phenyl)-N-methylmethanamine formate] displayed an EC50 of 646 nM.

Molecule `OC1CCN(Cc2cccc(-c3noc(-c4nnn(-c5ccccc5F)c4-c4ccncc4)n3)c2)C1` (stereo not drawn) [Example 134, 1-(3-{5-[1-(2-fluorophenyl)-5-pyridin-4-yl-1H-1,2,3-triazol-4-yl]-1,2,4-oxadiazol-3-yl}benzyl)pyrrolidin-3-ol] yielded an EC50 of 758 nM.

With `OC1CN(Cc2ccc(-c3noc(-c4nnn(-c5ccccc5F)c4-c4ccncc4)n3)cc2)C1` [Example 135, 1-(4-{5-[1-(2-fluorophenyl)-5-pyridin-4-yl-1H-1,2,3-triazol-4-yl]-1,2,4-oxadiazol-3-yl}benzyl)azetidin-3-ol], the response was half-maximal at 18 nM (EC50).

The molecule `OCCNCc1ccc(-c2noc(-c3nnn(-c4ccccc4F)c3-c3ccncc3)n2)cc1` [Example 136, 2-[(4-{5-[1-(2-fluorophenyl)-5-pyridin-4-yl-1H-1,2,3-triazol-4-yl]-1,2,4-oxadiazol-3-yl}benzyl)amino]ethanol] gave an EC50 of 31 nM.

With `CC(=O)NC1CCN(Cc2ccc(-c3noc(-c4nnn(-c5ccccc5F)c4-c4ccncc4)n3)cc2)CC1` [Example 137, N-[1-(4-{5-[1-(2-fluorophenyl)-5-pyridin-4-yl-1H-1,2,3-triazol-4-yl]-1,2,4-oxadiazol-3-yl}benzyl)piperidin-4-yl]acetamide], the EC50 turned out to be 223 nM.

In the case of `Fc1ccccc1-n1nnc(-c2nc(-c3ccc(CN4CCC4)cc3)no2)c1-c1ccncc1` [Example 138, 4-[4-{3-[4-(azetidin-1-ylmethyl)phenyl]-1,2,4-oxadiazol-5-yl}-1-(2-fluorophenyl)-1H-1,2,3-triazol-5-yl]pyridine], the EC50 was found to be 21 nM.

Turning to `OCC1CCN(Cc2ccc(-c3noc(-c4nnn(-c5ccccc5F)c4-c4ccncc4)n3)cc2)CC1` [Example 139, [1-(4-{5-[1(2-fluorophenyl)-5-pyridin-4-yl-1H-1,2,3-triazol-4-yl]-1,2,4-oxadiazol-3-yl}benzyl)piperidin-4-yl]methanol], the EC50 was found to be 118 nM.

Turning to `OCC1CCCN(Cc2ccc(-c3noc(-c4nnn(-c5ccccc5F)c4-c4ccncc4)n3)cc2)C1` (stereo not drawn) [Example 140, [1-(4-{5-[1-(2-fluorophenyl)-5-pyridin-4-yl-1H-1,2,3-triazol-4-yl]-1,2,4-oxadiazol-3-yl}benzyl)piperidin-3-yl]methanol], the EC50 worked out at 530 nM.

Consider `OC1CCN(Cc2ccc(-c3noc(-c4nnn(-c5ccccc5F)c4-c4ccncc4)n3)cc2)CC1` [Example 141, 1-(4-{5-[1-(2-fluorophenyl)-5-pyridin-4-yl-1H-1,2,3-triazol-4-yl]-1,2,4-oxadiazol-3-yl}benzyl)piperidin-4-ol], for which the EC50 came to 74 nM.

Take `OCC1CN(Cc2ccc(-c3noc(-c4nnn(-c5ccccc5F)c4-c4ccncc4)n3)cc2)CCO1` (stereo not drawn) [Example 143, [4-(4-{5-[1-(2-fluorophenyl)-5-pyridin-4-yl-1H-1,2,3-triazol-4-yl]-1,2,4-oxadiazol-3-yl}benzyl)morpholin-2-yl]methanol]: the EC50 amounted to 118 nM.

As for `CN(CCO)Cc1ccc(-c2noc(-c3nnn(-c4ccccc4F)c3-c3ccncc3)n2)cc1` [Example 144, 2-[(4-{5-[1-(2-fluorophenyl)-5-pyridin-4-yl-1H-1,2,3-triazol-4-yl]-1,2,4-oxadiazol-3-yl}benzyl)(methyl)amino]ethanol], the EC50 amounted to 108 nM.

Consider `CC(=O)Nc1ccc(-c2noc(-c3nnn(-c4ccccc4F)c3-c3ccncc3)n2)cn1` [Example 145, N-(5-{5-[1-(2-fluorophenyl)-5-pyridin-4-yl-1H-1,2,3-triazol-4-yl]-1,2,4-oxadiazol-3-yl}pyridin-2-yl)acetamide], for which a half-maximal effect (EC50) was put at 230 nM.

`CS(=O)(=O)NC1CCN(Cc2ccc(-c3noc(-c4nnn(-c5ccccc5F)c4-c4ccncc4)n3)cc2)CC1` [Example 146, N-[1-(4-{5-[1-(2-fluorophenyl)-5-pyridin-4-yl-1H-1,2,3-triazol-4-yl]-1,2,4-oxadiazol-3-yl}benzyl)piperidin-4-yl]methanesulfonamide]: the EC50 amounted to 360 nM.

As to `COCCNCc1cccc(-c2noc(-c3nnn(-c4ccccc4F)c3-c3ccncc3)n2)c1` [Example 147, N-(3-{5-[1-(2-fluorophenyl)-5-pyridin-4-yl-1H-1,2,3-triazol-4-yl]-1,2,4-oxadiazol-3-yl}benzyl)-2-methoxyethanamine], a half-maximal effect (EC50) was put at 577 nM.

In the case of `Fc1ccccc1-n1nnc(-c2nc(-c3cccc(CN4CCC4)c3)no2)c1-c1ccncc1` [Example 148, 4-[4-{3-[3-(azetidin-1-ylmethyl)phenyl]-1,2,4-oxadiazol-5-yl}-1-(2-fluorophenyl)-1H-1,2,3-triazol-5-yl]pyridine formate], the EC50 worked out at 508 nM.

On to `Fc1ccc(Br)c(-c2noc(-c3nnn(-c4ccccc4F)c3-c3ccncc3)n2)c1` [Example 149, 4-[4-[3-(2-bromo-5-fluorophenyl)-1,2,4-oxadiazol-5-yl]-1-(2-fluorophenyl)-1H-1,2,3-triazol-5-yl]pyridine], for which the EC50 stood at 39 nM.

Broadly, the EC50 is the concentration that produces a half-maximal response. A higher EC50 goes with weaker potency.

For the origin of these results see patent US8202856B2 (Merck Serono SA, priority 2007, dated 2012).
